The numbers were not newly measured in patent US11682473B2, “Skin permeability prediction” (priority 2016, dated 2023), which cites them from elsewhere.

For the series the following is noted: for log KP, Experimental: Experimental row of Table 16 (in vitro diffusion cells); for log KPexp: uncorrected literature value (permeabilities in cm/h); for log Kp303K: experimental literature values (in vitro diffusion cells), averaged over sources, temperature-corrected to 303 K.

The structures appear in SMILES notation. Where two headings read alike, the source gives them in different places.

As to `CN1CCCC1c1cccnc1` (stereo not shown) [Nicotine, nicotine], the “log KP, Experimental” value is −1.8 cm/h and the “log Kp303K” value is reported as −1.8 cm/h. Moreover, under “Texp 25 °C”, the “log KPexp” value was −1.71. The “log KPexp” value (Texp 37 °C) is −2.48.

Consider `c1ccccc1` [Benzene, benzene], for which the “log Kp303K” value is recorded as −0.8 cm/h. Also, the “log KPexp” value (Texp 25 °C) is listed as −0.80. Also, where the note is “Texp 31 °C”, the “log KPexp” value is recorded as −0.95.

As for `COc1ccc2c3c1O[C@H]1[C@@H](O)C=C[C@H]4[C@@H](C2)N(C)CC[C@@]341` [Codeine, codeine], the “log KP, Experimental” value was −4.6 cm/h and the “log Kp303K” value is given as −4.6 cm/h. Moreover, where the note is “Texp 37 °C”, the “log KPexp” value was −4.6.
